In patent US12679827B2, “Pyrimidine compounds and their pharmaceutical uses” (National Health Research Institutes, priority 2020, dated 2026):
pIC50: −log10 of the molar value.

Assays:
NCI-H69 [1] = test: Proliferation inhibition of various cancer cells (PrestoBlue), NCI-H69; format: cell-based; details: Homo sapiens, Small cell lung cancer, 72 hours
Procedure: (§1) The efficacies of compounds 41 and 86 of Formula (I) in inhibiting proliferation of eleven types of cancer cells were determined using PrestoBlue™ Cell Viability Reagent (ThermoFisher Scientific, USA). The eleven types of cancer cells are small cell lung cancer, non-small cell lung cancer, liver cancer, pancreatic cancer, breast cancer, colon cancer, prostate cancer, neuroblastoma, brain cancer, leukemia, and cholangiocarcinoma.
(§2) More specifically, […], i.e., NCI-H82 (ATCC® HTB-175), NCI-H446 (ATCC® HTB-171), NCI-H69 (ATCC® HTB-119), NCI-H146 (ATCC® HTB-173), NCI-H1792 (ATCC® CRL-5895), NCI-H1299 (ATCC® CRL-5803), SNU-398 (ATCC® CRL-2233), PSN-1 (ATCC® CRL-3211), MIA PaCa-2 (ATCC® CRL-1420), MDA-MB-231 (ATCC® HTB-26), LOVO (ATCC® CCL-229), COLO 205 (ATCC® CCL-222), PC-3 (ATCC® CRL-1435), SK-N-BE(2) (ATCC® CRL-2271), D341 Med (ATCC® HTB-187), K562 (ATCC® CCL-243), MOLM-13 (DSMZ-German Collection of Microorganisms and Cell Cultures GmbH, ACC No. 554), and SNU-478 (KCLB 00478), were seeded at a density of 4000-10000 cells per well in 96-well plates for 24 hours. The cancer cells were then treated with each compound at various concentrations (0-10 μM), followed by incubation for another 72 hours. IC50 values were computed based on duplicated 8-point titration.

Colo205 = test: Proliferation inhibition of various cancer cells (PrestoBlue), Colo205; format: cell-based; details: Homo sapiens, COLO 205; Colon cancer; 72 hours
Procedure: as §1, §2

NCI-H82 = test: Proliferation inhibition of various cancer cells (PrestoBlue), NCI-H82; format: cell-based; details: Homo sapiens, Small cell lung cancer, 72 hours
Procedure: as §1, §2

MYCN = test: Western blot, MYCN protein level in SK-N-BE(2) cells; format: cell-based, human; details: SK-N-BE(2) (neuroblastoma) cells; 50, 200, 500, 1000 nM; 24 hours; FIG. 1
Procedure: Compounds 41 and 86, both covered by Formula (I), were tested to assess their efficacies in reducing the level of cMYC oncoprotein in a human small-cell-lung-cancer (“SCLC”) cell line NCI-H82 (ATCC® HTB-175, USA) and the level of MYCN oncoprotein in a human neuroblastoma cell line SK-N-BE(2) (ATCC® CRL-2271, USA) as follows.
NCI-H82 was maintained in RPMI1640 medium (ThermoFisher Scientific, USA) supplemented with 10% fetal bovine serum (FBS, HyClone, USA) and antibiotics. SK-N-BE(2) was maintained in Minimum Essential Medium (MEM, ThermoFisher Scientific, USA) supplemented with 10% FBS (HyClone, USA) and antibiotics. The cancer cells from each cell line were treated with each of compounds 41 and 86 at 4 different compound concentrations, i.e., 50 nM, 200 nM, 500 nM, and 1000 nM. After 24 hours, each cancer cell solution was washed with 1× phosphate buffered saline (PBS), lysed in 1× Laemmli protein sample buffer, and boiled at 100° C. for 10 minutes. Each lysate was separated by SDS-PAGE, transferred to polyvinylidene fluoride (PVDF, Millipore, USA) membrane, and blotted with antibodies. Primary antibodies used for Western blotting were cMYC (Cell Signaling, Cat No. 5605S), MYCN (Cell Signaling, 9405S), PARP-1 (Abcam, ab32378), and GAPDH (Genetex, GTX100118). […]

[2] = molecular target: T1, human Aurora A (amino acids 123-401) (Homo sapiens, UniProt O14965); test: Kinase-Glo Luminescent Kinase assay, in vitro inhibition of Aurora A kinase activity; format: biochemical; details: recombinant GST-tagged Aurora A, 5.0 μM ATP, 37° C., 120 minutes
T1 construct: human Aurora A (amino acids 123-401) was expressed in Sf9 insect cells; GST; made in house; host or cells: Sf9 insect cells
T1 sequence (O14965 123-401): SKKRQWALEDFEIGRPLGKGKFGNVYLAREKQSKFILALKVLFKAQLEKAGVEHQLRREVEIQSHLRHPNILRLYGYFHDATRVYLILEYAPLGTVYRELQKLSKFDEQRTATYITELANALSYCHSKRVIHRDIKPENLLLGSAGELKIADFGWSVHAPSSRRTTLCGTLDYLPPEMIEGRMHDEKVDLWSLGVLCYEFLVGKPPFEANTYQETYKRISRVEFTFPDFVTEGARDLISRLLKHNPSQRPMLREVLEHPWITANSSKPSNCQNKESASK
In short: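 GST-tagged Aurora A (aa 123-401) expressed in Sf9 cells, incubated with compound at 100 nM, 5.0 μM ATP and 15 μM tetra(-LRRASLG) peptide in Tris-HCl pH 7.4 with MgCl2, BSA and DTT, 120 min at 37° C. Remaining ATP read by Kinase-Glo Plus luminescence after 20 min at 25° C.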

NCI-H1299 = test: Proliferation inhibition of various cancer cells (PrestoBlue), NCI-H1299; format: cell-based; details: Homo sapiens, Non-small cell lung cancer, 72 hours
Procedure: as §1, §2

NCI-H446 = test: Small-cell-lung cancer cell proliferation inhibition assay (PrestoBlue), NCI-H446; format: cell-based; details: Homo sapiens, cMYC amplified SCLC cells, 72 hours
Procedure: (§3) Small cell lung cancer cells NCI-H82 (ATCC HTB-175, cMYC amplified), NCI-H446 (ATCC® HTB-171, cMYC amplified), and NCI-H69 (ATCC® HTB-119, MYCN amplified) were seeded at the density of 5000-10000 cells per well in 96-well plates. After 24 hours, the cancer cells were treated with each compound at various concentrations (0-10 μM) and then incubated for another 72 hours. IC50 values were computed based on duplicated 8-point titration.

NCI-H69 [3] = test: Small-cell-lung cancer cell proliferation inhibition assay (PrestoBlue), NCI-H69; format: cell-based; details: Homo sapiens, MYCN amplified SCLC cells, 72 hours
Procedure: as §3

K562 = test: Proliferation inhibition of various cancer cells (PrestoBlue), K562; format: cell-based; details: Homo sapiens, Leukemia, 72 hours
Procedure: as §1, §2

| SMILES | pIC50 (NCI-H69 [1]) | pIC50 (Colo205) | pIC50 (NCI-H82) | protein level of MYCN (MYCN) | pIC50 [2] | pIC50 (NCI-H1299) | pIC50 (NCI-H446) | pIC50 (NCI-H69 [3]) | pIC50 (K562) |
| --- | --- | --- | --- | --- | --- | --- | --- | --- | --- |
| CCN1CCN(c2cc(Nc3cc(C)[nH]n3)nc(NC3CCN(C(=O)c4cccc(Cl)c4F)CC3)n2)CC1 [Compound 86] | > 6.70 | > 6.00 | > 6.52 | greatly reduced | > 7.00 | > 6.00 | > 6.00 | > 6.00 | > 6.00 |
| CCN1CCN(c2cc(Nc3cc(C)[nH]n3)nc(N[C@H]3CCN(C(=O)c4ccc(Cl)cc4F)C3)n2)CC1 [Compound 41] | > 6.70 | > 6.00 | > 6.70 | greatly reduced | > 7.00 | > 6.00 | > 6.00 | – | > 6.00 |
